SMILES strings stand for the structures.

This experiment concerns AMPK. The experiment in a line: Measurement of AMPK activity by Western blot in C2C12 cells. The format is cell-based. Particulars: 10 μM for 50 minutes, no superscript: Western blot of serine-79 and threonine-172 phosphorylation. Details: key to AMPK activity (degree of phosphorylation of serine-79 and threonine-172): fold increase in threonine-172 phosphorylation. How it is done: C2C12 cells were cultured and differentiated in the same manner as in Experimental Example 1. Treatment with the test materials was also performed in the same manner as in Experimental Example 1 (10 μM for 50 minutes). The culture medium was removed and the cells were washed for 2 times with PBS and protein extracts were obtained using a lysis buffer (50 mM tris-HCl, pH 7.4, 1% NP-40, 0.25% sodium deoxycholate, 150 mM NaCl, 1 mM EDTA, 1 mM PMSF, 1 mM sodium o-vanadate, 1 mM NaF, 1 μg/mL apronitin, 1 μg/mL leu-peptin, 1 μg/mL pepstatin). The AMPK activity was determined from Western blot analysis of the degree of phosphorylation of serine-79 […] acetyl CoA carboxylase and the degree of phosphorylation of threonine-172. The amount of ERK (extracellular signal regulated protein kinase) was confirmed by Western blot in order to quantify the proteins.
The result of Western blot analysis is given in Table 3 below, wherein “strong” means that the degree of phosphorylation of threonine-172 increased by 3 times or more, “mild” means that the degree of phosphorylation of threonine-172 increased by 1 to 3 times and “weak” means that the degree of phosphorylation of threonine-172 increased by less than 1 time.
Background: In western blotting, separated proteins are transferred to a membrane and probed.
As for `CCCc1nc(NCc2ccc(OC)cc2OC)c2ccccc2n1` [Compound 401, (2,4-Dimethoxybenzyl)-(2-propylquinazolino-4-yl)-amine], the “AMPK activity (degree of phosphorylation of serine-79 and threonine-172)” value (from here on “AMPK activity”) is reported as 1.4.

Regarding `COc1cc(OC)c(CNc2nc(N3CCCC3)nc3ccccc23)c(OC)c1` [Compound 315, (2-Pyrrolidino-1-ylquinazolino-4-yl)-(2,4,6-trimethoxybenzyl)-amine], the “AMPK activity” value was determined as 0.4.

For `COc1cc(OC)c(CNc2nc(-c3cccs3)nc3ccccc23)c(OC)c1` [Compound 359, (2-Thiopenyl-2-ylquinazolino-4-yl)-(2,4,6-trimethoxybenzyl)-amine], the “AMPK activity” value was found to be 0.9.

As to `CCOc1nc(NCc2ccc3c(c2)OCO3)c2ccccc2n1` [Compound 320, Benzo[1,3]dioxol-5-ylmethyl-(2-ethoxyquinazolino-4-yl)-amine], the “AMPK activity” value is on record as 0.9.

For `COc1cc(CNc2nc(C(OC)c3ccccc3)nc3ccccc23)cc(OC)c1OC` (stereo not shown) [Compound 367, [2-(Methoxyphenylmethyl)-quinazolino-4-yl]-(3,4,5-trimethoxybenzyl)-amine], the “AMPK activity” value came to 2.2.

Regarding `COc1cc(CNc2nc(N3CCCCC3)nc3ccccc23)cc(OC)c1OC` [Compound 312, (2-Piperidino-1-ylquinazolino-4-yl)-(3,4,5-trimethoxybenzyl)-amine], the “AMPK activity” value was 0.3.

For the compound `COc1cc(OC)c(CNc2nc(N3CCN(C)CC3)nc3ccccc23)c(OC)c1` [Compound 318, [2-(4-Methylpiperazino-1-yl)-quinazolino-4-yl]-(2,4,6-trimethoxybenzyl)-amine], the “AMPK activity” value is 0.5.

In the case of `COc1cccc(CNc2nc(N3CCCC3)nc3ccccc23)c1OC` [Compound 287, (2,3-Dimethoxybenzyl)-(2-pyrrolidino-1-ylquinazolino-4-yl)-amine], the “AMPK activity” value amounted to 1.2.

In the case of `COc1cc(CNc2nc(N3CCN(C)CC3)nc3ccccc23)cc(OC)c1OC` [Compound 314, [2-(4-Methylpiperazino-1-yl)-quinazolino-4-yl]-(3,4,5-trimethoxybenzyl)-amine], the “AMPK activity” value came to 0.2.

`CC(C)c1nc(SCc2ccccc2)c2ccccc2n1` [Compound 416, 4-Benzylsulfanyl-2-isopropylquinazoline]: the “AMPK activity” value stood at 0.7.

Consider `COc1cccc(CNc2nc(N3CCN(C)CC3)nc3ccccc23)c1OC` [Compound 290, (2,3-Dimethoxybenzyl)-[2-(4-methylpiperazino-1-yl)-quinazolino-4-yl]-amine], for which the “AMPK activity” value was found to be 1.0.

For the compound `COc1ccc(CNc2nc(-c3ccco3)nc3ccccc23)c(OC)c1` [Compound 346, (2,4-Dimethoxybenzyl)-(2-furano-2-ylquinazolino-4-yl)-amine], the “AMPK activity” value is 0.8.

For the compound `CCCc1nc(NCc2cc(OC)ccc2OC)c2ccccc2n1` [Compound 402, (2,5-Dimethoxybenzyl)-(2-propylquinazolino-4-yl)-amine], the “AMPK activity” value turned out to be 0.5.

As to `COc1cc(OC)c(CNc2nc(N3CCCCC3)nc3ccccc23)c(OC)c1` [Compound 316, (2-Piperidino-1-ylquinazolino-4-yl)-(2,4,6-trimethoxybenzyl)-amine], the “AMPK activity” value is recorded as 1.2.

Take `COc1ccccc1CNc1nc(N2CCN(C)CC2)nc2ccccc12` [Compound 278, (2-Methoxybenzyl)-[2-(4-methylpiperazino-1-yl)-quinazolino-4-yl]-amine]: the “AMPK activity” value turned out to be 1.2.

On to `COc1ccc(CNc2nc(-c3cccs3)nc3ccccc23)cc1` [Compound 351, (4-Methoxybenzyl)-(2-thiopenyl-2-ylquinazolino-4-yl)-amine], for which the “AMPK activity” value was determined as 0.7.

Regarding `COc1cccc(CNc2nc(N3CCOCC3)nc3ccccc23)c1` [Compound 281, (3-Methoxybenzyl)-(2-morpholino-4-ylquinazolino-4-yl)-amine], the “AMPK activity” value is recorded as 0.9.

For `COc1cccc(CNc2nc(-c3ccco3)nc3ccccc23)c1OC` [Compound 342, (2,3-Dimethoxybenzyl)-(2-furano-2-ylquinazolino-4-yl)-amine], the “AMPK activity” value was found to be 1.0.

Consider `COc1cc(OC)c(CNc2nc(-c3ccco3)nc3ccccc23)c(OC)c1` [Compound 348, (2-Furano-2-ylquinazolino-4-yl)-(2,4,6-trimethoxybenzyl)-amine], for which the “AMPK activity” value was 1.6.

As to `COc1cccc(CNc2nc(N3CCCC3)nc3ccccc23)c1` [Compound 279, (3-Methoxybenzyl)-(2-pyrrolidino-1-ylquinazolino-4-yl)-amine], the “AMPK activity” value was found to be 1.3.

Regarding `COc1cc(CNc2nc(-c3cccs3)nc3ccccc23)cc(OC)c1` [Compound 354, (3,5-Dimethoxybenzyl)-(2-thiopenyl-2-ylquinazolino-4-yl)-amine], the “AMPK activity” value was found to be 0.6.

Turning to `COc1ccc(CNc2nc(N3CCN(C)CC3)nc3ccccc23)cc1` [Compound 286, (4-Methoxybenzyl)-[2-(4-methylpiperazino-1-yl)-quinazolino-4-yl]-amine], the “AMPK activity” value is 1.0.

With `COc1cc(OC)c(CNc2nc(N3CCOCC3)nc3ccccc23)c(OC)c1` [Compound 317, (2-Morpholino-4-ylquinazolino-4-yl)-(2,4,6-trimethoxybenzyl)-amine], the “AMPK activity” value is 0.3.

On to `COc1ccc(CNc2ncnc3ccccc23)cc1OC` [Compound 410, (3,4-Dimethoxybenzyl)-quinazolino-4-ylamine], for which the “AMPK activity” value worked out at 1.1.

Regarding `COc1cc(CNc2nc(N3CCOCC3)nc3ccccc23)cc(OC)c1OC` [Compound 313, (2-Morpholino-4-ylquinazolino-4-yl)-(3,4,5-trimethoxybenzyl)-amine], the “AMPK activity” value amounted to 0.1.

On to `COc1ccc(CNc2nc(-c3ccco3)nc3ccccc23)cc1OC` [Compound 344, (3,4-Dimethoxybenzyl)-(2-furano-2-ylquinazolino-4-yl)-amine], for which the “AMPK activity” value is recorded as 0.4.

With `CC(C)c1nc(OCc2ccccc2)c2ccccc2n1` [Compound 415, 4-Benzyloxy-2-isopropylquinazoline], the “AMPK activity” value came to 1.1.

Turning to `COc1ccc(OC)c(CNc2nc(-c3cccs3)nc3ccccc23)c1` [Compound 358, (2,5-Dimethoxybenzyl)-(2-thiopenyl-2-ylquinazolino-4-yl)-amine], the “AMPK activity” value was 0.8.

Take `COc1cc(CNc2nc(C(OC)c3ccccc3)nc3ccccc23)cc(OC)c1` (stereo not shown) [Compound 365, (3,5-Dimethoxybenzyl)-[2-(methoxyphenylmethyl)-quinazolino-4-yl]-amine]: the “AMPK activity” value is reported as 1.1.

For the compound `COc1ccc(CNc2nc(-c3cccs3)nc3ccccc23)c(OC)c1` [Compound 357, (2,4-Dimethoxybenzyl)-(2-thiopenyl-2-ylquinazolino-4-yl)-amine], the “AMPK activity” value was 0.7.

Regarding `COc1ccccc1CNc1nc(-c2cccs2)nc2ccccc12` [Compound 349, (2-Methoxybenzyl)-(2-thiopenyl-2-ylquinazolino-4-yl)-amine], the “AMPK activity” value was determined as 2.1.

Consider `COc1cccc(CNc2nc(N3CCN(C)CC3)nc3ccccc23)c1` [Compound 282, (3-Methoxybenzyl)-[2-(4-methylpiperazino-1-yl)-quinazolino-4-yl]-amine], for which the “AMPK activity” value amounted to 0.9.

Regarding `COc1cccc(CNc2nc(-c3cccs3)nc3ccccc23)c1` [Compound 350, (3-Methoxybenzyl)-(2-thiopenyl-2-ylquinazolino-4-yl)-amine], the “AMPK activity” value is 0.6.

Consider `COc1ccc(CNc2nc(N3CCN(C)CC3)nc3ccccc23)c(OC)c1` [Compound 294, (2,4-Dimethoxybenzyl)-[2-(4-methylpiperazino-1-yl)-quinazolino-4-yl]-amine], for which the “AMPK activity” value was 0.4.

Consider `COc1cc(CNc2nc(N3CCCC3)nc3ccccc23)cc(OC)c1OC` [Compound 311, (2-Pyrrolidino-1-ylquinazolino-4-yl)-(3,4,5-trimethoxybenzyl)-amine], for which the “AMPK activity” value is 0.2.

Turning to `CCCc1nc(NCc2cc(OC)c(OC)c(OC)c2)c2ccccc2n1` [Compound 400, (2-Propylquinazolino-4-yl)-(3,4,5-trimethoxybenzyl)-amine], the “AMPK activity” value worked out at 0.4.

Regarding `CCCc1nc(NCc2c(OC)cc(OC)cc2OC)c2ccccc2n1` [Compound 403, (2-Propylquinazolino-4-yl)-(2,4,6-trimethoxybenzyl)-amine], the “AMPK activity” value is reported as 1.3.

The values above are taken from US20080207614A1, “QUINAZOLINE DERIVATIVES FOR THE TREATMENT AND PREVENTION OF DIABETES AND OBESITY” (SK CHEMICALS CO., LTD., priority 2004, published 2008).
